Source: patent US20210045385A1, “PYRIDAZINONE-SUBSTITUTED KETOXIMES AS HERBICIDES” (FMC Corporation, priority 2018, published 2021)

Columns and labels:
Assay type in all cases: in vivo
[1] = test system: Italian ryegrass (Lolium mutiflorum); assay: Test C preemergence, visual plant response rating; conditions: Test C, 0 is no effect, 100 is complete control
Summary of the method: (§1)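 Seeds sown in a loam–sand blend got a directed preemergence soil spray; postemergence plants (2–10 cm, one- to two-leaf stage) were sprayed with compound in a non-phytotoxic solvent plus surfactant. Injury was scored visually against untreated controls after about 10 d in a greenhouse on a 0–100 scale (100 = complete control).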

[2] = test system: barnyardgrass (Echinochloa crus-galli); assay: Test C preemergence, visual plant response rating; conditions: Test C, 0 is no effect, 100 is complete control
Summary of the method: as §1

[3] = test system: foxtail, giant (giant foxtail, Setaria faberi); assay: Test C preemergence, visual plant response rating; conditions: Test C, 0 is no effect, 100 is complete control
Summary of the method: as §1

kochia (Bassia scoparia) [4] = assay: Test C preemergence, visual plant response rating; conditions: Test C, 0 is no effect, 100 is complete control
Summary of the method: as §1

[5] = test system: pigweed (Amaranthus retroflexus); assay: Test C preemergence, visual plant response rating; conditions: Test C, 0 is no effect, 100 is complete control
Summary of the method: as §1

[6] = test system: ragweed (common ragweed, Ambrosia artemisiifolia); assay: Test C preemergence, visual plant response rating; conditions: Test C, 0 is no effect, 100 is complete control
Summary of the method: as §1

[7] = test system: Italian ryegrass (Lolium mutiflorum); assay: Test C postemergence, visual plant response rating
Summary of the method: as §1

[8] = test system: barnyardgrass (Echinochloa crus-galli); assay: Test C postemergence, visual plant response rating
Summary of the method: as §1

[9] = test system: blackgrass (Alopecurus myosuroides); assay: Test C postemergence, visual plant response rating
Summary of the method: as §1

corn (Zea mays) = assay: Test C postemergence, visual plant response rating
Summary of the method: as §1

[10] = test system: foxtail, giant (giant foxtail, Setaria faberi); assay: Test C postemergence, visual plant response rating
Summary of the method: as §1

[11] = test system: galium (catchweed bedstraw, Galium aparine); assay: Test C postemergence, visual plant response rating
Summary of the method: as §1

kochia (Bassia scoparia) [12] = assay: Test C postemergence, visual plant response rating
Summary of the method: as §1

[13] = test system: pigweed (Amaranthus retroflexus); assay: Test C postemergence, visual plant response rating
Summary of the method: as §1

[14] = test system: ragweed (common ragweed, Ambrosia artemisiifolia); assay: Test C postemergence, visual plant response rating
Summary of the method: as §1

[15] = test system: wheat (Triticum aestivum); assay: Test C postemergence, visual plant response rating
Summary of the method: as §1

[16] = test system: barnyardgrass (Echinochloa crus-galli); assay: Test D flooded paddy test, visual plant response rating; conditions: 250 g ai/ha, scale 0 to 100 (0 no effect, 100 complete control), 13 to 15 d
Summary of the method: (§2)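 Greenhouse paddy assay scored on a 0–100 visual scale after 13 to 15 d, where 100 means complete control and a dash marks no result; dosing was into 3 cm floodwater over 2-leaf plants.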

[17] = test system: duck salad (Heteranthera limosa); assay: as above; conditions: 250 g ai/ha, scale 0 to 100 (0 no effect, 100 complete control), 13 to 15 d
Summary of the method: as §2

rice (Oryza sativa) = assay: as above; conditions: 250 g ai/ha, scale 0 to 100 (0 no effect, 100 complete control), 13 to 15 d
Summary of the method: as §2

[18] = test system: sedge umbrella (small-flower umbrella sedge, Cyperus difformis); assay: as above; conditions: 250 g ai/ha, scale 0 to 100 (0 no effect, 100 complete control), 13 to 15 d
Summary of the method: as §2

[19] = Test C, postemergence, 125 g ai/ha

| Compound | Ryegrass, Italian plant response rating (0 to 100 scale) ([1]; 31 g ai/ha) | Ryegrass, Italian plant response rating (0 to 100 scale) ([1]; 125 g ai/ha) | Barnyardgrass plant response rating (0 to 100 scale) ([2]; 31 g ai/ha) | Barnyardgrass plant response rating (0 to 100 scale) ([2]; 125 g ai/ha) | Foxtail, Giant plant response rating (0 to 100 scale) ([3]; 31 g ai/ha) | Foxtail, Giant plant response rating (0 to 100 scale) ([3]; 125 g ai/ha) | Kochia plant response rating (0 to 100 scale) (kochia (Bassia scoparia) [4]; 31 g ai/ha) | Kochia plant response rating (0 to 100 scale) (kochia (Bassia scoparia) [4]; 125 g ai/ha) | Pigweed plant response rating (0 to 100 scale) ([5]; 31 g ai/ha) | Pigweed plant response rating (0 to 100 scale) ([5]; 125 g ai/ha) | Ragweed plant response rating (0 to 100 scale) ([6]; 31 g ai/ha) | Ragweed plant response rating (0 to 100 scale) ([6]; 125 g ai/ha) | Ryegrass, Italian plant response rating (0 to 100 scale) ([7]; Postemergence, 31 g ai/ha) | Ryegrass, Italian plant response rating (0 to 100 scale) [7, 19] | Barnyardgrass plant response rating (0 to 100 scale) ([8]; Postemergence, 31 g ai/ha) | Barnyardgrass plant response rating (0 to 100 scale) [8, 19] | Blackgrass plant response rating (0 to 100 scale) ([9]; Postemergence, 31 g ai/ha) | Blackgrass plant response rating (0 to 100 scale) [9, 19] | Corn plant response rating (0 to 100 scale) (corn (Zea mays); Postemergence, 31 g ai/ha) | Corn plant response rating (0 to 100 scale) (corn (Zea mays); [19]) | further results |
| --- | --- | --- | --- | --- | --- | --- | --- | --- | --- | --- | --- | --- | --- | --- | --- | --- | --- | --- | --- | --- | --- |
| CO/N=C(/c1cc(Cl)c(F)c(Cl)c1)c1c(O)c(C)nn(C)c1=O [Compound 289] | 0 | 30 | 0 | 0 | 0 | 10 | 0 | 0 | 0 | 40 | 0 | 30 | 0 | 60 | 0 | 10 | 0 | 0 | 0 | 0 | Foxtail, Giant plant response rating (0 to 100 scale) ([10]; Postemergence, 31 g ai/ha): 0; Foxtail, Giant plant response rating (0 to 100 scale) [10, 19]: 0; Galium plant response rating (0 to 100 scale) ([11]; Postemergence, 31 g ai/ha): 70; Galium plant response rating (0 to 100 scale) [11, 19]: 100; Kochia plant response rating (0 to 100 scale) (kochia (Bassia scoparia) [12]; Postemergence, 31 g ai/ha): 20; Kochia plant response rating (0 to 100 scale) (kochia (Bassia scoparia) [12]; [19]): 40; Pigweed plant response rating (0 to 100 scale) ([13]; Postemergence, 31 g ai/ha): 0; Pigweed plant response rating (0 to 100 scale) [13, 19]: 0; Ragweed plant response rating (0 to 100 scale) ([14]; Postemergence, 31 g ai/ha): 40; Ragweed plant response rating (0 to 100 scale) [14, 19]: 90; Wheat plant response rating (0 to 100 scale) ([15]; Postemergence, 31 g ai/ha): 0; Wheat plant response rating (0 to 100 scale) [15, 19]: 0; Plant response rating, Barnyardgrass (Flood) [16]: 0; Plant response rating, Ducksalad (Flood) [17]: 0; Plant response rating, Rice (Flood) (rice (Oryza sativa)): 0; Plant response rating, Sedge, Umbrella (Flood) [18]: 0 |
| CO/N=C(\c1cccc(Br)c1)c1c(O)c(C)nn(C)c1=O [Compound 239] | 10 | 50 | 0 | 0 | 0 | 10 | 0 | 10 | 0 | 10 | 10 | 50 | 50 | 60 | 10 | 30 | 0 | 0 | 0 | 0 | Foxtail, Giant plant response rating (0 to 100 scale) ([10]; Postemergence, 31 g ai/ha): 0; Foxtail, Giant plant response rating (0 to 100 scale) [10, 19]: 20; Galium plant response rating (0 to 100 scale) ([11]; Postemergence, 31 g ai/ha): 70; Galium plant response rating (0 to 100 scale) [11, 19]: 90; Kochia plant response rating (0 to 100 scale) (kochia (Bassia scoparia) [12]; Postemergence, 31 g ai/ha): 40; Kochia plant response rating (0 to 100 scale) (kochia (Bassia scoparia) [12]; [19]): 60; Pigweed plant response rating (0 to 100 scale) ([13]; Postemergence, 31 g ai/ha): 20; Pigweed plant response rating (0 to 100 scale) [13, 19]: 60; Ragweed plant response rating (0 to 100 scale) ([14]; Postemergence, 31 g ai/ha): 50; Ragweed plant response rating (0 to 100 scale) [14, 19]: 70; Wheat plant response rating (0 to 100 scale) ([15]; Postemergence, 31 g ai/ha): 0; Wheat plant response rating (0 to 100 scale) [15, 19]: 0; Plant response rating, Barnyardgrass (Flood) [16]: 0; Plant response rating, Ducksalad (Flood) [17]: 0; Plant response rating, Rice (Flood) (rice (Oryza sativa)): 0; Plant response rating, Sedge, Umbrella (Flood) [18]: 0 |
| C#CCO/N=C(/c1c(O)c(C)nn(C)c1=O)c1cc(Cl)cc2ccccc12 [Compound 192] | 10 | 70 | 30 | 90 | 60 | 90 | 0 | 20 | 40 | 100 | 30 | 70 | 20 | 70 | 80 | 90 | 40 | 70 | 20 | 30 | Foxtail, Giant plant response rating (0 to 100 scale) ([10]; Postemergence, 31 g ai/ha): 70; Foxtail, Giant plant response rating (0 to 100 scale) [10, 19]: 80; Galium plant response rating (0 to 100 scale) ([11]; Postemergence, 31 g ai/ha): 80; Galium plant response rating (0 to 100 scale) [11, 19]: 100; Kochia plant response rating (0 to 100 scale) (kochia (Bassia scoparia) [12]; Postemergence, 31 g ai/ha): 30; Kochia plant response rating (0 to 100 scale) (kochia (Bassia scoparia) [12]; [19]): 60; Pigweed plant response rating (0 to 100 scale) ([13]; Postemergence, 31 g ai/ha): 50; Pigweed plant response rating (0 to 100 scale) [13, 19]: 80; Ragweed plant response rating (0 to 100 scale) ([14]; Postemergence, 31 g ai/ha): 80; Ragweed plant response rating (0 to 100 scale) [14, 19]: 90; Wheat plant response rating (0 to 100 scale) ([15]; Postemergence, 31 g ai/ha): 0; Wheat plant response rating (0 to 100 scale) [15, 19]: 50; Plant response rating, Barnyardgrass (Flood) [16]: 50; Plant response rating, Ducksalad (Flood) [17]: 70; Plant response rating, Rice (Flood) (rice (Oryza sativa)): 0; Plant response rating, Sedge, Umbrella (Flood) [18]: 70 |
